Results reported in US20220048953A1, “CELL-PENETRATING PEPTIDE” (KANEKA CORPORATION, priority 2018, published 2022).
Where no end group is shown, it is not given here. [ ]: non-standard residue; d: D form. Aib = CC(C)(N)C(=O)O; Ahx = NCCCCCC(=O)O

Tested on: HeLa cell (Human cervix adenocarcinoma cell)
Assay: Cell membrane penetrating performance evaluation (flow cytometry of fluorescein-labelled peptide conjugates)
Assay type: cell-based
Conditions: 2 μM peptide conjugate, 37° C., 2 hours, ratio to Comparative example 2 = (Fn−F1)/(F2−F1), mode values, flow cytometer
Description: Test example 1: Cell Membrane Penetrating Performance Evaluation
HeLa cell (Human cervix adenocarcinoma cell) was cultivated in a culture fluid containing 2 μM of the peptide conjugate of Examples 1 to 9 or Comparative examples 1 to 6 at 37° C. for 2 hours. Then, the cell was collected and stained with a propidium iodide solution to measure a fluorescence intensity using a flow cytometer, and a fluorescence intensity ratio to Comparative example 2 was calculated in accordance with the following formula.
Fluorescence intensity ratio=(Fn−F1)/(F2−F1)
Fn: Fluorescence intensity mode value of tested compound
F1: Fluorescence intensity mode value of tested compound of Comparative example 1
F2: Fluorescence intensity mode value of tested compound of Comparative example 2

F-Ahx-(cargo peptide)-(Leu-Leu-Ala)-(Gly)3-(Arg)9-NH2 (F[Ahx]CGGSGGSCLLAGGGRRRRRRRRR-NH2; not fully specified (bridges); cysteine pairing not given here) [Example 9]
Fluorescence intensity ratio: 3.34

F-Ahx-(cargo peptide)-(Arg)9-(Gly)3-(Leu-Leu-Aib)-NH2 (F[Ahx]CGGSGGSCRRRRRRRRRGGGLL[Aib]-NH2; not fully specified (bridges); cysteine pairing not given here) [Example 8]
Fluorescence intensity ratio: 2.74
